Assay results as given in US6444684B1 (priority 1993, dated 2002).
Read-outs that look alike come from different tables or passages of the source.

How the values were obtained:
ras oncogene p21 protein = conditions: U.S. Pat. No. 5,158,960; Liu et al.; cited from earlier work
[1] = system: 3LL = Lewis Lung Carcinoma Cells; conditions: for Differential Index 3LL: 3LL = Lewis lung carcinoma cells, compared with normal NRKE cells
Renal Cancer cell lines = assay: NCI in vitro anticancer screen (SRB), renal cancer subpanel; conditions: for Activity (Average PG for highest dose tested) Renal Cancer: 48 hours exposure, average percent growth over the cell lines
Experimental: (§1) Compounds chosen for the program are initially tested in an in vitro anticancer screen. A total of fifty-five human tumor cell lines, derived from nine cancer types (lung, colon, melanoma, renal, ovarian, brain, prostate, breast and leukemia), are used in this screen. The tumor cells are inoculated over a series of standard 96-well microtiter plates on day 0. These cells are then preincubated on the microtiter plates for 24 hours. The test compounds are added to the wells in five 10-fold dilutions starting from the highest soluble concentration. Each compound is tested against every cell line in the panel. The compounds are incubated for 48 hours with the tumor cell lines. At the termination of the assay, the cells are fixed in situ, washed, and dried. Sulforhodamine B (SRB), a pink anionic dye that binds to the basic amino acids of trichloroacetic acid-fixed cells, is added. The cells are washed again, and the remaining dye is a function of the adherent cell mass. The bound stain is solubilized and measured spectrophotometrically. The data are entered from automatic reading devices into a computer for subsequent storage and analysis.
(§2) The measured effect of each test compound on the cell lines is calculated according to one or the other of the following two expressions:
(§3) If (Mean ODtest−Mean ODtzero)□0, then PG=100×(Mean ODtest−Mean ODtzero)/(Mean ODctrl−Mean ODtzero);
(§4) If (Mean ODtest−Mean ODtzero)<0, then PG=100×(Mean ODtest−Mean ODtzero)/Meantzero;
(§5) First, a data sheet is provided which lists, for each cell line, the Mean ODtzero, the Mean ODctrl, the Mean ODtest for each of the five concentrations, the calculated PGs for each concentration, and the response parameters G150, TGI, and LC50.
(§6) Third, mean graphs at each of the principal response parameters (GI50, TGI, and LC50) are provided. […] Since the bar scale is logarithmic, a bar two units to the right implies the compound achieved the response parameter (e.g., GI50) for the cell line at a concentration 1/100 the mean concentration required over all cell lines, and thus the cell line is unusually sensitive to that compound. Bars extending to the left correspondingly imply sensitivity less than the mean. Thus, the mean graphs facilitate visual scanning of data for potential patterns of selectivity for particular cell lines or for particular subpanels with respect to a selected response parameter.

[2] = system: N/4.2-NRKE transformed by the human ras^N gene; conditions: for Differential Index N/4.2: N/4.2 = ras^N transformed NRK cells, compared with normal NRKE cells
HIV-RT = HIV-RT (Human immunodeficiency virus type 1 group M subtype B, UniProt P03366); assay: HIV-RT inhibition by AZT-TP, lavendamycin analogs and their combinations; format: biochemical; set-up: unit of the concentration uncertain; conditions: AZT-TP Conc. 0 (unit uncertain); for % inh. ave.: average of three trials
Source text: AZT-TP was used for these in vitro studies since AZT is naturally phosphorylated in vivo.
The results of these tests are given in Table XVIII and XIX below, where the percent inhibition of HIV-RT activity is reported for three different trials and then averaged in the seventh column. […] .

CNS Cancer cell lines = assay: NCI in vitro anticancer screen (SRB), CNS cancer subpanel; conditions: 48 hours exposure; average percent growth over the cell lines
Experimental: as §1, §2, §3, §4, §5, §6

[3] = system: Ovarian Cancer cell lines; assay: NCI in vitro anticancer screen (SRB), ovarian cancer subpanel; conditions: 48 hours exposure; average percent growth over the cell lines
Experimental: as §1, §2, §3, §4

[4] = system: Prostate Cancer cell lines; assay: NCI in vitro anticancer screen (SRB), prostate cancer subpanel; conditions: 48 hours exposure; average percent growth over the cell lines
Experimental: as §1, §2, §3, §4

Breast Cancer cell lines = assay: NCI in vitro anticancer screen (SRB), breast cancer subpanel; conditions: 48 hours exposure; average percent growth over the cell lines
Experimental: as §1, §2, §3, §4

[5] = system: normal rat kidney epithelial (NRKE) cells
[6] = system: H/1.2 = ras^H Transformed NRKE Cells; conditions: for Differential Index H/1.2: H/1.2 = ras^H transformed NRKE cells, compared with normal NRKE cells
Colon Cancer cell lines = assay: NCI in vitro anticancer screen (SRB), colon cancer subpanel; conditions: 48 hours exposure; average percent growth over the cell lines
Experimental: as §1, §2, §3, §4

Leukemia cell lines = assay: NCI in vitro anticancer screen (SRB), leukemia subpanel; conditions: for Activity (Average PG for highest dose tested) Leukemia: 48 hours exposure, average percent growth over the cell lines
Experimental: as §1, §2, §3, §4, §5, §6

Melanoma cell lines = assay: NCI in vitro anticancer screen (SRB), melanoma subpanel; conditions: 48 hours exposure; average percent growth over the cell lines
Experimental: as §1, §2, §3, §4, §5, §6

[7] = system: Non-Small Cell Lung Cancer cell lines; assay: NCI in vitro anticancer screen (SRB), non-small cell lung cancer subpanel; conditions: 48 hours exposure; average percent growth over the cell lines
Experimental: as §1, §2, §3, §4, §5, §6

[8] = system: K/1 = ras^K Transformed NRKE Cells; conditions: for Differential Index K/1: K/1 = ras^K transformed NRKE cells, compared with normal NRKE cells
[9] = system: K/1-NRKE tumor (ras^K-transformed NRKE cells)
[10] = system: K/1 = ras^K Transformed NRKE Cells; assay: cells; conditions: Rattus norvegicus, read-out: LC50 K/1
[11] = system: 3LL = Lewis Lung Carcinoma Cells; assay: cells; conditions: Mus musculus
[12] = system: H/1.2 = ras^H Transformed NRKE Cells; assay: cells; conditions: Rattus norvegicus, read-out: LC50 H/1.2
[13] = system: N/4.2-NRKE transformed by the human ras^N gene; assay: cells; conditions: N42, read-out: LC50 N/4.2
in vitro = conditions: rat, LC50 NRKE
[14] = found by other investigators; cited from earlier work
[15] = 120 h, read-out: LC50 3LL, Table VII, concentration giving 50% cell kill, 5 days exposure
[16] = read-out: LC50 3LL, Table XV (Example 51)

COC1=C(N)C(=O)c2nc(-c3nc(C(=O)O)c(C)c(-c4ccc(OC)cc4O)c3N)ccc2C1=O [10′-Desmethoxystreptonigrin, 10′-desmethoxystreptonigrin]
activity relative to streptonigrin in an assay for the inhibition of the farnesylation of ras oncogene p21 protein (ras oncogene p21 protein): three times more active than streptonigrin

CC(=O)NC1=CC(=O)c2ccc(-c3nc(C(N)=O)cc4c3[nH]c3ccccc34)nc2C1=O [Compound 16]
CC50 [1]: 0.21 µM
Differential Index 3LL [1]: 4.29
Activity (Average PG for highest dose tested) Renal Cancer (Renal Cancer cell lines): −72.9%
Selectivity: sensitivity of one of the seven renal cancer cell lines relative to average sensitivity of the fifty-five cell lines (Renal Cancer cell lines; at GI50, TGI and/or LC50, initial screen): One of the seven renal cancer cell lines was about 100 times
selectivity for renal cancer (in words) (Renal Cancer cell lines; repeat cancer screen): did not exhibit the selectivity for renal cancer
CC50 [2]: 0.22 µM
Differential Index N/4.2 [2]: 4.09
% inh. Trial 1 (HIV-RT; LA Conc. 3.0 (unit uncertain)): 0%
% inh. Trial 2 (HIV-RT; LA Conc. 3.0 (unit uncertain)): 3%
% inh. Trial 3 (HIV-RT; LA Conc. 3.0 (unit uncertain)): 12%
% inh. ave. (HIV-RT; LA Conc. 3.0 (unit uncertain)): 5.0%
% inh. Trial 1 (HIV-RT; LA Conc. 6.0 (unit uncertain)): 26%
% inh. Trial 2 (HIV-RT; LA Conc. 6.0 (unit uncertain)): 33%
% inh. Trial 3 (HIV-RT; LA Conc. 6.0 (unit uncertain)): 30%
% inh. ave. (HIV-RT; LA Conc. 6.0 (unit uncertain)): 29.7%
% inh. Trial 1 (HIV-RT; LA Conc. .5 (unit uncertain)): 0%
% inh. Trial 2 (HIV-RT; LA Conc. .5 (unit uncertain)): 0%
% inh. Trial 3 (HIV-RT; LA Conc. .5 (unit uncertain)): 0%
% inh. ave. (HIV-RT; LA Conc. .5 (unit uncertain)): 0.0%
Activity (Average PG for highest dose tested) CNS Cancer (CNS Cancer cell lines): −60.4%
Activity (Average PG for highest dose tested) Ovarian Cancer [3]: −55.5%
Activity (Average PG for highest dose tested) Prostate Cancer [4]: −18.0%
Activity (Average PG for highest dose tested) Breast Cancer (Breast Cancer cell lines): −45.1%
CC50 [5]: 0.9 µM
CC50 [6]: 0.23 µM
Differential Index H/1.2 [6]: 3.91
Activity (Average PG for highest dose tested) Colon Cancer (Colon Cancer cell lines): −52.1%
Activity (Average PG for highest dose tested) Leukemia (Leukemia cell lines): −28.3%
Activity (Average PG for highest dose tested) Melanoma (Melanoma cell lines): −78.4%
Activity (Average PG for highest dose tested) Non-Small Cell Lung Cancer [7]: −52.3%
CC50 [8]: 0.35 µM
Differential Index K/1 [8]: 2.57

CCCCCCCCOC(=O)c1cc2c([nH]c3ccccc32)c(-c2ccc3c(n2)C(=O)C(NC(C)=O)=CC3=O)n1 [Compound 21]
Activity (Average PG for highest dose tested) Renal Cancer (Renal Cancer cell lines): +67.5%
CC50 [2]: 9 µM
Activity (Average PG for highest dose tested) CNS Cancer (CNS Cancer cell lines): +59.3%
Activity (Average PG for highest dose tested) Ovarian Cancer [3]: +47.0%
Activity (Average PG for highest dose tested) Prostate Cancer [4]: +69.5%
Activity (Average PG for highest dose tested) Breast Cancer (Breast Cancer cell lines): +62.9%
CC50 [6]: 7.6 µM
Activity (Average PG for highest dose tested) Colon Cancer (Colon Cancer cell lines): +62.3%
Activity (Average PG for highest dose tested) Leukemia (Leukemia cell lines): +20.3%
Activity (Average PG for highest dose tested) Melanoma (Melanoma cell lines): +58.6%
Activity (Average PG for highest dose tested) Non-Small Cell Lung Cancer [7]: +13.0%
CC50 [8]: 0.25 µM
selective toxicity against ras^K oncogene bearing tumor cells as compared to the normal, non-transformed cells ([8]; LC50 NRKE divided by LC50 K/1): 132 fold
Number Dead Number Treated ([9]; 150 Mg/Kg/Day IP once daily for 8 days): 0/7
Number Dead Number Treated ([9]; 300 Mg/Kg/Day IP once daily for 8 days): 0/7
toxicity in tumor-bearing nude mice (in words) ([9]; even at doses up to 300 mg/kg/day): little or no toxicity
tumor growth inhibition in vivo (in words) ([9]; summary of Table X): excellent tumor growth inhibition

CC(=O)NC1=CC(=O)c2ccc(C=O)nc2C1=O [Compound 23, 7-ACETAMIDO-2-FORMYLQUINOLINE-5,8-DIONE]
Differential Index 3LL [1]: 1.35
CC50 ([10]; 120 h): 2.6 µM
CC50 [10]: 12.5 µM
Differential Index N/4.2 [2]: 0.7
CC50 [11, 15]: 1.2 µM
CC50 [11, 16]: 3.7 µM
Differential Index H/1.2 [6]: 0.9
CC50 ([12]; 120 h): 2.5 µM
CC50 [12]: 5.5 µM
CC50 [13]: 7 µM
Differential Index K/1 [8]: 0.4

O=Cc1ccc2c(n1)C(=O)C(NC(=O)CCl)=CC2=O [Compound 24, 7-CHLOROACETAMIDO-2-FORMYLQUINOLINE-5,8-DIONE]
Differential Index 3LL [1]: 1.7
CC50 at 5 days (in vitro): 3.6 µM
CC50 [10]: 5.8 µM
Differential Index N/4.2 [2]: 1.125
CC50 [11, 16]: 2.1 µM
Differential Index H/1.2 [6]: 1.06
CC50 [12]: 3.4 µM
CC50 [13]: 3.2 µM
Differential Index K/1 [8]: 0.6

CCCC(=O)NC1=CC(=O)c2ccc(C=O)nc2C1=O [Compound 26, 7-BUTYRAMIDO-2-FORMYLQUINOLINE-5,8-DIONE]
Differential Index 3LL [1]: 1.2
Activity (Average PG for highest dose tested) Renal Cancer (Renal Cancer cell lines): −93.0%
CC50 at 5 days (in vitro): 3 µM
CC50 [10]: > 3.3 µM
Differential Index N/4.2 [2]: <0.9
Activity (Average PG for highest dose tested) CNS Cancer (CNS Cancer cell lines): −61.0%
Activity (Average PG for highest dose tested) Ovarian Cancer [3]: −63.2%
CC50 [11, 16]: 2.5 µM
Activity (Average PG for highest dose tested) Prostate Cancer [4]: −81.5%
Activity (Average PG for highest dose tested) Breast Cancer (Breast Cancer cell lines): −35.0%
Differential Index H/1.2 [6]: 0.9
Activity (Average PG for highest dose tested) Colon Cancer (Colon Cancer cell lines): −17.9%
Activity (Average PG for highest dose tested) Leukemia (Leukemia cell lines): −10.8%
CC50 [12]: 3.3 µM
Activity (Average PG for highest dose tested) Melanoma (Melanoma cell lines): −79.0%
Activity (Average PG for highest dose tested) Non-Small Cell Lung Cancer [7]: −50.9%
CC50 [13]: > 3.3 µM
Differential Index K/1 [8]: <0.9

CC(=O)NC1=CC(=O)c2ccc(C)nc2C1=O [Compound 27, 7-ACETAMIDO-2-METHYLQUINOLINE-5,8-DIONE]
Differential Index 3LL [1]: 1.8
CC50 at 5 days (in vitro): 2.4 µM
CC50 ([10]; 120 h): 5.9 µM
CC50 [10]: 14 µM
Differential Index N/4.2 [2]: 0.8
CC50 [11, 15]: 2 µM
CC50 [11, 16]: 2.6 µM
CC50 ([5]; rat, 5 days): 4.6 µM
Differential Index H/1.2 [6]: 0.9
CC50 ([12]; 120 h): 4.4 µM
CC50 [12]: 5 µM
CC50 [13]: 5.7 µM
Differential Index K/1 [8]: 0.3

Cc1ccc2c(n1)C(=O)C(NC(=O)CCl)=CC2=O [Compound 28, 7-CHLOROACETAMIDO-2-METHYLQUINOLINE-5,8-DIONE]
Differential Index 3LL [1]: 1.4
CC50 at 5 days (in vitro): 3.2 µM
CC50 [10]: 6.6 µM
Differential Index N/4.2 [2]: 0.9
CC50 [11, 16]: 2.3 µM
Differential Index H/1.2 [6]: 1.1
CC50 [12]: 2.8 µM
CC50 [13]: 3.4 µM
Differential Index K/1 [8]: 0.48

CCCC(=O)NC1=CC(=O)c2ccc(C)nc2C1=O [Compound 30, 7-BUTYRAMIDO-2-METHYLQUINOLINE-5,8-DIONE]
Differential Index 3LL [1]: 0.9
Activity (Average PG for highest dose tested) Renal Cancer (Renal Cancer cell lines): −92.0%
CC50 at 5 days (in vitro): 2 µM
CC50 [10]: > 3.3 µM
Differential Index N/4.2 [2]: <0.6
Activity (Average PG for highest dose tested) CNS Cancer (CNS Cancer cell lines): −93.8%
Activity (Average PG for highest dose tested) Ovarian Cancer [3]: −86.7%
CC50 [11, 16]: 2.2 µM
Activity (Average PG for highest dose tested) Prostate Cancer [4]: −79.0%
Activity (Average PG for highest dose tested) Breast Cancer (Breast Cancer cell lines): −62.7%
Differential Index H/1.2 [6]: 0.7
Activity (Average PG for highest dose tested) Colon Cancer (Colon Cancer cell lines): −66.6%
Activity (Average PG for highest dose tested) Leukemia (Leukemia cell lines): −21.7%
selectivity for leukemia (in words) (Leukemia cell lines; repeat cancer screen): showed selectivity for leukemia
CC50 [12]: 2.7 µM
Activity (Average PG for highest dose tested) Melanoma (Melanoma cell lines): −85.1%
Activity (Average PG for highest dose tested) Non-Small Cell Lung Cancer [7]: −71.1%
CC50 [13]: > 3.3 µM
Differential Index K/1 [8]: <0.6

Cc1c(C(=O)O)nc(-c2ccc3c(n2)C(=O)C(N)=CC3=O)c2[nH]c3ccccc3c12 [lavendamycin, Lavendamycin]
dose that is lethal [14]: 100 mg/kg/day
